In patent publication US20240246964A1 (Arbutus Biopharma Corporation, priority 2021, published 2024):

What follows are molecules tested against human PD-L1 (Homo sapiens (Human), UniProt Q9NZQ7) (assay: T cell activation luciferase reporter cell culture system (T Cell Activation Assay)). Details: luciferase reporter assay; PD-L1 aAPC/CHO-K1 cells with PD-1 effector Jurkat T cells.
Type: cell-based

Sequence of human PD-L1 (Q9NZQ7 19-290): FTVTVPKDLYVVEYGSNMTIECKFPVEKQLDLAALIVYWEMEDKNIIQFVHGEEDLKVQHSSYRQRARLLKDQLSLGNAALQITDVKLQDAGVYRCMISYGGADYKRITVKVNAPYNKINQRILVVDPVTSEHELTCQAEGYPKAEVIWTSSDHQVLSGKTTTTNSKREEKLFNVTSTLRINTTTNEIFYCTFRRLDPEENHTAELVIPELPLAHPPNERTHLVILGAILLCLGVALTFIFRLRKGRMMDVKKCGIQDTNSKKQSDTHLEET

| EC50 [nM] | SMILES |
| --- | --- |
| 96.5 | COc1nc(-c2cccc(-c3ccnc(-c4cc5c(=O)n(CCNCC(=O)O)c(OC)nn5c4)c3Cl)c2Cl)ccc1CNC[C@@H]1CCC(=O)N1 [Example 460, (S)-(2-(6-(3-Chloro-4-(2-chloro-3-(6-methoxy-5-((((5-oxopyrrolidin-2-yl)methyl)amino)methyl)pyridin-2-yl)phenyl)pyridin-2-yl)-2-methoxy-4-oxopyrrolo[2,1-f][1,2,4]triazin-3(4H)-yl)ethyl)glycine] |
| 22.1 | COc1cc(-c2nccc(-c3cccc(-c4ccc(CNC[C@@H]5CCC(=O)N5)c(OC)n4)c3Cl)c2Cl)ccc1CNC1CC2(C1)CN(C(C)=O)C2 [Example 237, (S)-5-((((6-(3-(2-(4-(((2-acetyl-2-azaspiro[3.3]heptan-6-yl)amino)methyl)-3-methoxyphenyl)-3-chloropyridin-4-yl)-2-chlorophenyl)-2-methoxypyridin-3-yl)methyl)amino)methyl)pyrrolidin-2-one] |
| 80.4 | COc1cc(-c2ncnc(-c3cccc(-c4ccc(CN[C@H]5C[C@H](O)C5)c(OC)n4)c3Cl)c2Cl)ccc1CN1CC2(CNC(=O)C2)C1 [Example 740] |
| 187 | COc1cc(-c2ncnc(-c3cccc(-c4ccc(CN5CC6(CC(O)C6)C5)c(OC)n4)c3Cl)c2Cl)ccc1CN1CC2(CC(O)C2)C1 [Example 568, 2-((6-(2-chloro-3-(5-chloro-6-(4-((6-hydroxy-2-azaspiro[3.3]heptan-2-yl)methyl)-3-methoxyphenyl)pyrimidin-4-yl)phenyl)-2-methoxypyridin-3-yl)methyl)-2-azaspiro[3.3]heptan-6-ol] |
| 28.6 | COc1cc(-c2nccc(-c3cccc(NC(=O)c4ccc(CNCCO)cn4)c3Cl)c2Cl)ccc1CNC1CCN(C(C)=O)CC1 [Example 733, N-(3-(2-(4-(((1-Acetylpiperidin-4-yl)amino)methyl)-3-methoxyphenyl)-3-chloropyridin-4-yl)-2-chlorophenyl)-5-(((2-hydroxyethyl)amino)methyl)picolinamide] |
| 121 | COc1nc(-c2ccnc(-c3cccc4c3CC[C@@H]4Nc3nc(OC)c(CNC4CCN(C(C)=O)CC4)cc3C(F)(F)F)c2Cl)ccc1CNC[C@@H]1CCC(=O)N1 [Example 633, (S)-5-((((2′-((S)-1-((5-(((1-Acetylpiperidin-4-yl)amino)methyl)-6-methoxy-3-(trifluoromethyl)pyridin-2-yl)amino)-2,3-dihydro-1H-inden-4-yl)-3′-chloro-6-methoxy-[2,4′-bipyridin]-5-yl)methyl)amino)methyl)pyrrolidin-2-one] |
| 36.8 | COc1nc(-c2cccc(-c3ccnc(-c4ccc(CN5CC6(C5)CN(C(C)=O)C6)c(OC(F)F)c4)c3Cl)c2Cl)ccc1CN1CC2(C1)CN(C(C)=O)C2 [Example 598, 1-(6-((6-(3-(2-(4-((6-Acetyl-2,6-diazaspiro[3.3]heptan-2-yl)methyl)-3-(difluoromethoxy)phenyl)-3-chloropyridin-4-yl)-2-chlorophenyl)-2-methoxypyridin-3-yl)methyl)-2,6-diazaspiro[3.3]heptan-2-yl)ethan-1-one] |
| 18 | COc1cc(-c2nccc(-c3cccc(-c4ccc(CNC5CCOCC5)c(OC)n4)c3Cl)c2Cl)ccc1CNC1CCN(C(C)=O)CC1 [Example 391, 1-(4-((4-(3-chloro-4-(2-chloro-3-(6-methoxy-5-(((tetrahydro-2H-pyran-4-yl)amino)methyl)pyridin-2-yl)phenyl)pyridin-2-yl)-2-methoxybenzyl)amino)piperidin-1-yl)ethan-1-one] |
| 30.2 | COc1cc(-c2nccc(-c3cccc(-c4ccc(CN5CC6(CNC(=O)C6)C5)c(OC)n4)c3Cl)c2Cl)ccc1CN1CC2(CC(O)C2)C1 [Example 497, 2-((6-(2-Chloro-3-(3-chloro-2-(4-((6-hydroxy-2-azaspiro[3.3]heptan-2-yl)methyl)-3-methoxyphenyl)pyridin-4-yl)phenyl)-2-methoxypyridin-3-yl)methyl)-2,6-diazaspiro[3.4]octan-7-one] |
| 596 | COc1nc(-c2ccnc(-c3cccc4c3CC[C@@H]4Oc3nc(OC)c(CN4CC5(C4)CN(C(C)=O)C5)cc3C(F)(F)F)c2Cl)ccc1CN1CC2(C1)CN(C(C)=O)C2 [Example 248, (S)-1-(6-((6-((4-(5-((6-Acetyl-2,6-diazaspiro[3.3]heptan-2-yl)methyl)-3′-chloro-6-methoxy-[2,4′-bipyridin]-2′-yl)-2,3-dihydro-1H-inden-1-yl)oxy)-2-methoxy-5-(trifluoromethyl)pyridin-3-yl)methyl)-2,6-diazaspiro[3.3]heptan-2-yl)ethan-1-one] |
| 154 | COc1cc(-c2nccc(-c3cccc(NC(=O)c4ccc(CNCCO)cn4)c3C)c2Cl)ccc1CN1CC2(CNC(=O)C2)C1 [Example 744, N-(3-(3-Chloro-2-(3-methoxy-4-((7-oxo-2,6-diazaspiro[3.4]octan-2-yl)methyl)phenyl)pyridin-4-yl)-2-methylphenyl)-5-(((2-hydroxyethyl)amino)methyl)picolinamide] |
| 48.7 | COc1cc(-c2nccc(-c3cccc(-c4ccc(CNC5CCN(C(C)=O)CC5)c(OC)n4)c3Cl)c2Cl)ccc1CNC1CCN(C(=O)C(C)C)CC1 [Example 371, 1-(4-((4-(4-(3-(5-(((1-acetylpiperidin-4-yl)amino)methyl)-6-methoxypyridin-2-yl)-2-chlorophenyl)-3-chloropyridin-2-yl)-2-methoxybenzyl)amino)piperidin-1-yl)-2-methylpropan-1-one] |
| 20.3 | COc1cc(-c2nccc(-c3cccc(-c4ccc(CNC5CCN(C(C)=O)CC5)c(OC)n4)c3Cl)c2Cl)ccc1CN1CC2(C1)CN(C(C)=O)C2 [Example 482, 1-(4-(((6-(3-(2-(4-((6-acetyl-2,6-diazaspiro[3.3]heptan-2-yl)methyl)-3-methoxyphenyl)-3-chloropyridin-4-yl)-2-chlorophenyl)-2-methoxypyridin-3-yl)methyl)amino)piperidin-1-yl)ethan-1-one] |
| ≥ 10000 | COc1cc(-c2ncnc(-c3cccc(-c4ccc(CN5CC6(CNC(=O)C6)C5)c(OC)n4)c3Cl)c2OC)ccc1CN1CC2(CNC(=O)C2)C1 [Example 727, 2-((6-(2-Chloro-3-(5-methoxy-6-(3-methoxy-4-((7-oxo-2,6-diazaspiro[3.4]octan-2-yl)methyl)phenyl)pyrimidin-4-yl)phenyl)-2-methoxypyridin-3-yl)methyl)-2,6-diazaspiro[3.4]octan-7-one] |
| 36 | COCCC(=O)N1CCC(NCc2ccc(-c3cccc(-c4ccnc(-c5ccc(CN6CCC(O)CC6)c(OC)c5)c4Cl)c3Cl)nc2OC)CC1 [Example 616, 1-(4-(((6-(2-Chloro-3-(3-chloro-2-(4-((4-hydroxypiperidin-1-yl)methyl)-3-methoxyphenyl)pyridin-4-yl)phenyl)-2-methoxypyridin-3-yl)methyl)amino)piperidin-1-yl)-3-methoxypropan-1-one] |
| 130 | COc1nc(-c2cccc(-c3ccnc(-c4cc(OC)c5nc(CNCCCF)nn5c4)c3Cl)c2Cl)ccc1CNC1CCN(C(C)=O)CC1 [Example 713, 1-(4-(((6-(2-Chloro-3-(3-chloro-2-(2-(((3-fluoropropyl)amino)methyl)-8-methoxy-[1,2,4]triazolo[1,5-a]pyridin-6-yl)pyridin-4-yl)phenyl)-2-methoxypyridin-3-yl)methyl)amino)piperidin-1-yl)ethan-1-one] |
| 288 | COc1cc(-c2nccc(-c3cccc(-c4ccc(CN[C@H]5CC[C@H](O)CC5)c(OC)n4)c3Cl)c2C)ccc1CN[C@H]1CC[C@H](O)CC1 [Example 463, (1r,4r)-4-(((6-(2-Chloro-3-(2-(4-((((1r,4r)-4-hydroxycyclohexyl)amino)methyl)-3-methoxyphenyl)-3-methylpyridin-4-yl)phenyl)-2-methoxypyridin-3-yl)methyl)amino)cyclohexan-1-ol] |
| ≥ 10000 | COc1cc(-c2nccc(-c3cccc4c3CCC[C@@H]4Nc3nc(OC)c(CNC[C@H](C)O)cc3C(F)(F)F)c2Cl)ccc1CNC[C@@H]1CCC(=O)N1 [Example 736, (S)-5-(((4-(3-Chloro-4-((S)-5-((5-((((S)-2-hydroxypropyl)amino)methyl)-6-methoxy-3-(trifluoromethyl)pyridin-2-yl)amino)-5,6,7,8-tetrahydronaphthalen-1-yl)pyridin-2-yl)-2-methoxybenzyl)amino)methyl)pyrrolidin-2-one] |
| 581 | COc1nc(-c2cccc(-c3ccnc(-c4cc(OC)c5nc(CN(C)CCO)nn5c4)c3Cl)c2Cl)ccc1CNC1CCN(C(C)=O)CC1 [Example 715, 1-(4-(((6-(2-Chloro-3-(3-chloro-2-(2-(((2-hydroxyethyl)(methyl)amino)methyl)-8-methoxy-[1,2,4]triazolo[1,5-a]pyridin-6-yl)pyridin-4-yl)phenyl)-2-methoxypyridin-3-yl)methyl)amino)piperidin-1-yl)ethan-1-one] |
| 38.9 | COc1nc(-c2cccc(-c3ccnc(-c4ccc(CNC[C@@H]5CCC(=O)N5)c(OC(F)F)c4)c3Cl)c2Cl)ccc1CNC[C@@H]1CCC(=O)N1 [Example 617, (S)-5-((((6-(2-Chloro-3-(3-chloro-2-(3-(difluoromethoxy)-4-(((((S)-5-oxopyrrolidin-2-yl)methyl)amino)methyl)phenyl)pyridin-4-yl)phenyl)-2-methoxypyridin-3-yl)methyl)amino)methyl)pyrrolidin-2-one] |
| 420 | COc1nc(-c2ccnc(-c3cccc(NC(=O)c4cn(C)c(=O)n(C)c4=O)c3Cl)c2Cl)ccc1CN1CC2(CNC(=O)C2)C1 [Compound 719, N-(2-Chloro-3-(3′-chloro-6-methoxy-5-((7-oxo-2,6-diazaspiro[3.4]octan-2-yl)methyl)-[2,4′-bipyridin]-2′-yl)phenyl)-1,3-dimethyl-2,4-dioxo-1,2,3,4-tetrahydropyrimidine-5-carboxamide] |

| SMILES | EC50 [nM] |
| --- | --- |
| COCCC(=O)N1CCC(NCc2ccc(-c3cccc(-c4ccnc(-c5ccc(CNC[C@H](C)O)c(OC)c5)c4Cl)c3Cl)nc2OC)CC1 [Example 632, (S)-1-(4-(((6-(2-Chloro-3-(3-chloro-2-(4-(((2-hydroxypropyl)amino)methyl)-3-methoxyphenyl)pyridin-4-yl)phenyl)-2-methoxypyridin-3-yl)methyl)amino)piperidin-1-yl)-3-methoxypropan-1-one] | 41.2 |
